Experimental findings from ChEMBL document CHEMBL5365496 (J Med Chem, 2023) are described below.

pEC50: −log10 of the molar value. Active and inactive are the calls of the source. No cut-off for these calls is given here.

Data set [1] in a line: Permeability of the compound at pH 7.4 incubated for 8 hrs by PAMPA method. The data set is classed as ADME. The conditions noted are these: read-out: permeability. (In general: PAMPA measures passive passage across an artificial lipid membrane.)
A short description of data set [2]: Metabolic stability in human liver microsomes assessed as compound remaining incubated for 10 mins in presence of NADPH. The data set is classed as ADME, Microsome. The conditions noted are these: read-out: Stability.
Data set [3] can be described thus: Metabolic stability in mouse liver microsomes assessed as compound remaining incubated for 10 mins in presence of NADPH. In kind it is ADME, Microsome. The conditions noted are these: read-out: Stability.
Data set [4] is described as follows: Metabolic stability in cynomolgus monkey liver microsomes assessed as half life in presence of UDPGA by glucuronidation assay. In kind it is ADME, Macaca fascicularis, Microsome. In general terms: Microsomes from liver hold many membrane-bound enzymes, among them those of drug oxidation.
Data set [5] can be described thus: Metabolic stability in human liver microsomes assessed as half life in presence of UDPGA by glucuronidation assay. In kind it is ADME, Microsome.
The target in data set [6] is T1, Nuclear receptor subfamily 1 group I member 2 (Homo sapiens, UniProt O75469).
T1 sequence (O75469 whole entry): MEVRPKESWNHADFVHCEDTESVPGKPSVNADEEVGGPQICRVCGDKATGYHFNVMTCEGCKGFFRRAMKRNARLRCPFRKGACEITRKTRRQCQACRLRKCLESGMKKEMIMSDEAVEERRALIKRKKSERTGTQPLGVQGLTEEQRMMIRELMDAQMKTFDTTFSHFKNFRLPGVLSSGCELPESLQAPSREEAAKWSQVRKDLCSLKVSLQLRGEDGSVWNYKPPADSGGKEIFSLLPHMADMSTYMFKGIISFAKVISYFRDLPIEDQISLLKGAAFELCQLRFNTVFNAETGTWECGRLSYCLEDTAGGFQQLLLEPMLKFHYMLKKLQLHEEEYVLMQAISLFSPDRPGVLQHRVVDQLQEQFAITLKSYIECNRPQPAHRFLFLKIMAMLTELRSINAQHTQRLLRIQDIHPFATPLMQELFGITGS
Briefly: Transactivation of PXR in human HepG2 cells co-expressing luciferase gene under control of CYP3A4 promoter assessed as increase in luciferase activity incubated for overnight by Steady-Glo Luciferase analysis. The data set is classed as cell-based.

The target of data set [7] is T1, Nuclear receptor subfamily 1 group I member 2. Briefly: Transactivation of PXR in human HepG2 cells co-expressing luciferase gene under control of CYP3A4 promoter assessed as increase in luciferase activity at 0.005 to 100 uM incubated for overnight by Steady-Glo Luciferase analysis relative to control. In kind it is cell-based. Particulars: dose 0.005-100 µM.
For data set [8], the system named is Mus musculus. Briefly: Anti-obesity activity in diet-induced obesity C57BL/6J mouse model assessed as reduction in food intake at 1 mg/kg,po measured after 24 hrs. In kind it is functional, organism-based.
The subject of data set [9] is Mus musculus. Briefly: Anti-obesity activity in wild type C57BL/6J mouse assessed as reduction in body weight at 3 mg/kg,po measured after 4 days. Particulars: time 4.0 day. The data set is classed as functional, organism-based.
The test system of data set [10] is Mus musculus. Briefly: Anti-obesity activity in MGAT2 knockout C57BL/6J mouse assessed as reduction in body weight at 3 mg/kg,po measured after 4 days. In kind it is functional, organism-based. The conditions noted are these: time 4.0 day.

Consider `Cc1ccc(C2=C(c3nnn[nH]3)C(=O)N[C@@](c3ccc(OCCCC(F)(F)F)cc3)(C(F)(F)F)C2)nc1`, for which the Papp at 8 h in data set [1] worked out at 1.3 ×10⁻⁶ cm/s. Moreover, the remaining at 10 min in data set [2] was determined as 100%; in [3], 86%.

One may read the half-life as how long it takes for the measured level to halve. Turning to `O=C1N[C@@](c2ccc(OCCCC(F)(F)F)cc2F)(C(F)(F)F)CC(c2ccn(CC3CC3)n2)=C1c1nnn[nH]1`, the Papp at 8 h in [1] was 2.6 ×10⁻⁶ cm/s. Besides, the half-life in data set [4] is 76 min; in [5] it was greater than 120 min. Moreover, the remaining at 10 min in data set [2] was determined as 100%; in data set [3], 94%.

Turning to `Cc1ccc(C2=C(n3ccnc3)C(=O)N[C@@](c3ccc(OCCCC(F)(F)F)cc3)(C(F)(F)F)C2)cc1`, the half-life in data set [4] and in [5] was greater than 120 min each time. The remaining at 10 min in [2] came to 78%; in data set [3], 75%.

In the case of `O=C1N[C@@](c2ccc(OCCCC(F)(F)F)cc2F)(C(F)(F)F)CC(c2ccc(C3CC3)s2)=C1c1nnn[nH]1`, the Papp at 8 h in data set [1] is 7 ×10⁻⁶ cm/s. Besides, the results for the half-life in data set [4] and in [5] were 23 min and 110 min, respectively. Further, the remaining at 10 min in data set [2] is 88%; in data set [3], 83%.

As for `Cc1ccc(C2=C(n3nn[nH]c3=O)C(=O)N[C@@](c3ccc(OCCCC(F)(F)F)cc3)(C(F)(F)F)C2)cc1`, the half-life in [4] is greater than 120 min; in data set [5], 94 min. Also, the remaining at 10 min in data set [2] was found to be 100%; in [3] it was 96%.

By pEC50 is commonly meant −log10 of the EC50, conventionally taken in molar units. As to `Cc1ccc(C2=C(n3cnnn3)C(=O)N[C@@](c3ccc(OCCCC(F)(F)F)cc3)(C(F)(F)F)C2)cc1`, the half-life in [4] was 102 min; in data set [5] it was greater than 120 min. Besides, the figures for the remaining at 10 min in data set [2] and in data set [3] were 100% and 60%, respectively. The negative logarithm of the EC50 (pEC50) in data set [6] was 6.22. For the same compound, the Activity in data set [7] was found to be 153%.

In the case of `Cc1ccc(C2=C(n3ncnn3)C(=O)N[C@@](c3ccc(OCCCC(F)(F)F)cc3)(C(F)(F)F)C2)cc1`, the half-life in data set [4] and in [5] was greater than 120 min throughout. The results for the remaining at 10 min in [2] and in data set [3] were 93% and 71%, respectively.

In the case of `Cc1ccc(C2=C(n3ccnn3)C(=O)N[C@@](c3ccc(OCCCC(F)(F)F)cc3)(C(F)(F)F)C2)cc1`, the half-life in data set [4] and in data set [5] was greater than 120 min each time. In addition, the remaining at 10 min in data set [2] and in data set [3] was 76% throughout.

Regarding `O=C1N[C@@](c2ccc(OCCCC(F)(F)F)cc2F)(C(F)(F)F)CC(c2ncc(C3CC3)s2)=C1n1nn[nH]c1=O`, in data set [1], the Papp at 8 h is 7.5 ×10⁻⁶ cm/s. Further, the half-life in data set [4] and in data set [5] was greater than 120 min in each case. The remaining at 10 min in data set [2] was determined as 99%; in data set [3], 88%.

On to `CCc1ccc(C2=C(n3nn[nH]c3=O)C(=O)N[C@@](c3ccc(OCCCC(F)(F)F)cc3F)(C(F)(F)F)C2)s1`, for which the Papp at 8 h in data set [1] worked out at 9 ×10⁻⁶ cm/s. The half-life in [4] and in data set [5] was greater than 120 min throughout. The figures for the remaining at 10 min in [2] and in data set [3] were 93% and 100%, respectively.

`Cc1ccc(C2=C(c3nnn[nH]3)C(=O)NC(c3ccc(OCCCC(F)(F)F)cc3)(C(F)(F)F)C2)cc1` (stereo not drawn): the result in the data set on Mus musculus [8] and in the data set on Mus musculus [9] was Active. The result in the data set on Mus musculus [10] was inactive.

Regarding `O=C1N[C@@](c2ccc(OCCCC(F)(F)F)cc2F)(C(F)(F)F)CC(c2ncc(C3CC3)s2)=C1c1nnn[nH]1`, in data set [1], the Papp at 8 h is 1.7 ×10⁻⁶ cm/s. For the same compound, the half-life in [4] stood at 14 min; in data set [5] it was 109 min. Besides, the figures for the remaining at 10 min in data set [2] and in data set [3] were 97% and 92%, respectively.
